In series [1] the test system is dipeptidyl peptidase IV (DPP-IV). The settings on record: cited from earlier work; for resistance to DPPIV mediated degradation / cleavage: short description of a known GLP-1R agonist in Table 10, in words.
Series [2] concerns PnsrR-GFP reporter construct. Briefly: Nitric oxide-inducible GFP reporter assay, fluorescence plate reader. Type of series: cell-based, E. coli Nissle. The settings on record: NO donor DETA-NO, two-fold decreased across a range of concentrations; relative florescence units; FIG. 28.
The subject of series [3] is rat intestinal epithelial cells. The settings on record: cited from earlier work.
For series [4], the system named is Ptet-GFP reporter construct. Nature of the series: ATC-inducible GFP reporter assay, fluorescence plate reader. In kind it is cell-based, E. coli Nissle. The settings on record: two-fold decreased inducer across a range of concentrations; relative florescence units; FIG. 28.

These results are taken from patent US11291693B2, “Bacteria engineered to treat metabolic diseases” (Synlogic Operating Company, Inc., priority 2015, dated 2022).

Regarding Taspoglutide, the “resistance to DPPIV mediated degradation / cleavage” value in series [1] is on record as “avoid degradation by DPPIV,”.

“GLP-1: glucagon-like peptide 1, produced by intestinal cells”: in series [1] (rapid degradation catalyzed by DPP-IV), the stability is 3 to 5 min.

Take Dulaglutide: in series [1], the “resistance to DPPIV mediated degradation / cleavage” value is “protection from DPPIV”.

Turning to `NCCN(CCN)/[N+]([O-])=N/O` [NO, diethylenetriamine-nitric oxide adduct], the “induction of GFP expression in PnsrR-GFP reporter construct” value in series [2] was “able to induce the expression of GFP”.

As to “GLP-1(1-37): full-length form of GLP-1, SEQ ID NO: 73 (HDEFERHAEGTFTSDVSSYLEGQAAKEFIAWLVKGRG)”, in series [3], the “effect on intestinal epithelial cells” value is “stimulate rat intestinal epithelial cells to become glucose-responsive insulin-secreting cells”.

With anhydrous tetracycline [ATC], the “induction of GFP expression in Ptet-GFP reporter construct” value in series [4] is listed as “able to induce the expression of GFP”.

For the molecule “GLP-1(7-37): circulating active form of GLP-1, SEQ ID NO: 75”, the “biological half-life in blood” value in series [1] (blood) was “a few minutes”.
